In assay [1] the test system is RGC-5 (rat ganglion cell-5). In words: Retinal neuron protection under necroptosis inducing (TCZ; TNFα+cycloheximide+zVAD) condition, LDH assay. Format: cell-based. The note with it: RGC-5, TCZ 15 hours, compound 20 μM, DMSO control = 100%. On the procedure: The following experiment was performed to evaluate the retinal neuron protection effect of the compounds of the invention under necroptosis inducing condition.
The retinal ganglion cell line RGC-5 (rat ganglion cell-5) was cultured in DMEM (Dulbecco's modified Eagle's medium) supplemented with 10% FBS (fetal bovine serum) and 1% penicillin/streptomycin. The cells were distributed in a 96-well plate at the density of 8×10^3 cells/well, followed by culture in a 37° C., CO2 incubator for 12 hours. The medium supplemented with TNFα (10 ng/ml), cycloheximide (10 μg/ml), and zVAD (10 μM) (TCZ) was treated with DMSO (0.1%) alone (control) or with the compounds of the invention (20 μM), followed by additional culture in a 37° C., CO2 incubator for 15 hours to induce cell death.
The level of cell death was measured by LDH (lactate dehydrogenase, Roche) assay. The level of the control LDH under TCZ condition was regarded as 100%, and the level of LDH in the cell group cultured in normal medium (10% FBS, DMEM) for the same time was used for the measurement of the relative rate of cell death. The compounds of examples of the invention were treated to wells, each compound for three wells, and then each experiment was performed in triplicate.

Assay [2] has as its target RIPK1 (receptor-interacting serine/threonine-protein kinase 1) (Homo sapiens (Human), UniProt Q13546). Nature of the assay: RIPK1 inhibitory activity, autophosphorylation of immuno-precipitated RIPK1 with [32P]γ-ATP. It is filed as biochemical. As to conditions: for inhibition at 100 µM: Table 2, 100 μM; for activity at 100 µM: compound 100 μM, remaining RIPK1 phosphorylation. On the procedure:
The following experiment was performed to evaluate RIPK1 (receptor-interacting serine/threonine-protein kinase 1) inhibitory activity of the compounds of examples of the invention.
RIPK1 enzyme immuno-precipitated in HEK293 (Human Embryonic Kidney 293) cell lysate was used as kinase. The experiment was performed according to the method described in Cell. 12; 137(6):1112-23(2009). RIPK1 protein was over-expressed in HEK293 cell line, to which lysis buffer (50 mM Tris-Cl [pH 8.0], 150 mM NaCl, 1 mM EDTA, 1% NP-40, 0.4 mM phenylmethylsulfonyl fluoride (PMSF)) was added for cell lysis. Centrifugation was performed at 13,000 rpm for 10 minutes to separate the supernatant. RIPK1 monoclonal antibody (610459, BD Bioscience) and A/G agarose beads (sc-2003, Santa Cruz Biotechnology) were added thereto, followed by immuno-precipitation in a 4° C. rotator for 12 hours.
The immune complex was washed with lysis buffer twice and then washed with kinase assay buffer (20 mM HEPES [pH7.6], 2 mM DTT, 1 mM NaF, 1 mM Na3Vo4, 20 mM β-glycerophosphate, 20 mM PNPP, 20 mM MgCl2, 20 mM MnCl2, 1 mM Benzamidie, and 1 mM EDTA) lastly. Kinase assay buffer and the compound were added to the RIPK1 immuno-precipitate, followed by reaction in a 24° C. constant-temperature water bath for 15 minutes. Additional reaction was induced for 30 minutes at 30° C. after 100 μM of ATP and 10 μCi[^32P] γ-ATP were added thereto. The reaction mixture was washed with kinase assay buffer once, to which protein loading buffer was added, followed by heating at 100° C. for 3 minutes. The reaction mixture was then loaded on 8% SDS-PAGE gel. Radioactive image of the phosphorylated RIPK1 was detected with FLA-7000 (GE healthcare). The image Quant TL program was used for the quantification.

In assay [3] the test system is RGC-5 (rat ganglion cell). Nature of the assay: Retinal nerve protection under oxygen-glucose deprivation (OGD), LDH assay. It is filed as cell-based. The note with it: RGC-5, OGD 15 hours, compound 20 μM, DMSO control = 100%. On the procedure:
The following experiment was performed to evaluate the protective effect of the compounds of examples of the invention on the retinal nerve under oxygen-glucose deprivation condition.
The retinal ganglion cell line RGC-5 (rat ganglion cell) was cultured in DMEM (Dulbecco's modified Eagle's medium) supplemented with 10% FBS (fetal bovine serum) and 1% penicillin/streptomycin. The cells were distributed in a 96-well plate at the density of 8×10^3 cells/well, followed by culture in a 37° C., CO2 incubator for 12 hours. The cells were washed with PBS once and the medium was replaced with glucose free DMEM. The cells were treated with either DMSO (0.1%) alone (control) or with the compounds of examples (20 μM) shown in Table 3, followed by culture in an anaerobic incubator (10% H2, 5% CO2, 85% N2, 37° C., chamber (ThermoForma, USA)) for 15 hours to induce cell death.
The level of cell death was measured by LDH (lactate dehydrogenase, Roche) assay. The LDH assay is a method for measuring the activity of LDH released from the damaged cells into the culture medium. NAD^+ was reduced to NADH and H^+ by LDH, and the bond of tetrazolium salt INT ring was cleaved by diaphorase to form formazan. Absorbance of the formazan was measured at 490 nm by using Victor 3 (PerkinElmer). The absorbance reflects the amount of dead cells.
The level of the control LDH under oxygen-glucose deprivation condition was regarded as 100%, and the level of LDH in the cell group cultured in normal medium (10% FBS, DMEM) for the same time was regarded as 0%. Based on that, the levels of LDH of the cell groups treated with the compounds of the invention under oxygen-glucose deprivation condition were converted into the relative ratio of cell death. The compounds of examples of the invention were treated to wells, each compound for three wells, and then each experiment was performed in triplicate.

Where only a bound is given, the exact number is not on record here.

Sequence of RIPK1 (receptor-interacting serine/threonine-protein kinase 1) (Q13546 whole entry, species assumed): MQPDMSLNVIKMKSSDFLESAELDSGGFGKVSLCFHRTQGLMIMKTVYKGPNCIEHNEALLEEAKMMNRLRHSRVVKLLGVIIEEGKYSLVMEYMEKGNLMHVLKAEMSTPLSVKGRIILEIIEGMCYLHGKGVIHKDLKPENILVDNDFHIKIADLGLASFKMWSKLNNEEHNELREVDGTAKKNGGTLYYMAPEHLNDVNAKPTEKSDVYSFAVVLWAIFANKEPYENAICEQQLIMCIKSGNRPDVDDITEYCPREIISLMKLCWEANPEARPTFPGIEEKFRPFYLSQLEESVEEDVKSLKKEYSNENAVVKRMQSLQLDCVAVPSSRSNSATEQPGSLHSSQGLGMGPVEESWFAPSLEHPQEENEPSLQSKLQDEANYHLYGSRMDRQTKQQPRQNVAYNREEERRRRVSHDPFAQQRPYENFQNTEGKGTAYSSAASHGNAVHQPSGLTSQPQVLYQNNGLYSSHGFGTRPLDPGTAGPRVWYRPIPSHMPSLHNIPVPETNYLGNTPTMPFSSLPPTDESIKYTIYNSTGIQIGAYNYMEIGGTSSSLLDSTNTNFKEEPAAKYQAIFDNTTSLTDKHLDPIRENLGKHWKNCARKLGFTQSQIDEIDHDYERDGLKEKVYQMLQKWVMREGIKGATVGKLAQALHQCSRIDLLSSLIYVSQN

For orientation: inhibition means the change of the read-out against control, counted positive when it falls. Low values mean little suppression, high ones strong suppression. As to `COc1ccc2[nH]c(C(=O)N3CCOCC3)cc2c1` [Example 22, (5-methoxy-1H-indole-2-yl)(morpholino)methanone], in assay [1], the “Death of retinal nerve cell (%)” value is listed as 69.5 ± 7.4%. In assay [2], this compound registered an inhibition at 100 µM not below 50% and an activity at 100 µM of 43.5 ± 10.6%. The “Death of retinal nerve cell (%)” value in assay [3] came out at 78.6 ± 13.8%.
`Fc1ccc(-c2cccc3sc(CN4CCOCC4)cc23)cc1` [Example 7, 4-((4-(4-fluorophenyl)benzo[b]thiophene-2-yl)methyl)morpholine]: the entries for the “Death of retinal nerve cell (%)” value in assay [1] and in assay [3] were 63.2 ± 3.9% and 90.0 ± 3.3%, respectively. In addition, the activity at 100 µM in assay [2] is 87.1 ± 17.7%.
Consider `O=C(c1cc2c(Br)cncc2s1)N1CCOCC1` [Example 3, (4-bromothieno[2,3-c]pyridine-2-yl)(morpholino)methanone], for which the “Death of retinal nerve cell (%)” value in assay [1] was 79.6 ± 3.2%. In addition, in assay [2], the activity at 100 µM stood at 52 ± 2.8%.
With `Cc1ccc2[nH]c(C(=O)N3CCOCC3)nc2c1` [Example 13, (5-methyl-1H-benzo[d]imidazole-2-yl)(morpholino)methanone], the “Death of retinal nerve cell (%)” value in assay [1] turned out to be 71.2 ± 7.0%; in assay [3], 69.6 ± 2.0%. This compound showed an activity at 100 µM in assay [2] of 83.4 ± 16.1%.
Consider `O=C(c1cc2ccccc2o1)N1CCOCC1` [Example 15, benzofuran-2-yl(morpholino)methanone], for which the “Death of retinal nerve cell (%)” value in assay [1] stood at 72.6 ± 6.8%; in assay [3] it was 42.7 ± 2.0%. The compound further displayed an activity at 100 µM in assay [2] of 85.6 ± 26.7%.
As for `O=C(c1cc2cccc(-c3ccc(F)cc3)c2s1)N1CCOCC1` [Example 65, (7-(4-fluorophenyl)benzo[b]thiophene-2-yl)(morpholino)methanone], the “Death of retinal nerve cell (%)” value is 77.8 ± 9.6% in assay [1] and 79.6 ± 5.5% in assay [3]. In assay [2], this compound returned an activity at 100 µM of 67%.
For the compound `O=C(c1cc2c(Br)cnc(Cl)c2s1)N1CCOCC1` [Example 1, (4-bromo-7-chlorothieno[2,3-c]pyridine-2-yl)(morpholino)methanone], the “Death of retinal nerve cell (%)” value in assay [1] stood at 79.3 ± 3.2%. In assay [2], this compound had an activity at 100 µM of 52.5 ± 7.8%.
For the compound `O=C(c1cc2c(-c3ccc(F)cc3)cnc(Cl)c2s1)N1CCOCC1` [Example 5, (7-chloro-4-(4-fluorophenyl)thieno[2,3-c]pyridine-2-yl)(morpholino)methanone], the “Death of retinal nerve cell (%)” value is 57.6 ± 19.2% in assay [1] and 62.1 ± 3.7% in assay [3]. Moreover, the activity at 100 µM in assay [2] turned out to be 85.1 ± 24.7%.
`O=C(c1cc2cc(Cl)ccc2[nH]1)N1CCOCC1` [Example 12, (5-chloro-1H-indole-2-yl)(morpholino)methanone]: the “Death of retinal nerve cell (%)” value was 50.5 ± 7.4% in assay [1] and 35.7 ± 0.1% in assay [3]. The same compound showed an activity at 100 µM in assay [2] of 60%.
Take `O=C(c1cc2cc(Br)ccc2o1)N1CCOCC1` [Example 16, (5-bromobenzofuran-2-yl)(morpholino)methanone]: the “Death of retinal nerve cell (%)” value in assay [1] was found to be 59.4 ± 11.3%; in assay [3], 19.3 ± 1.4%. In addition, the activity at 100 µM in assay [2] came out at 88 ± 24.7%.
`O=C(c1nc2ccccc2[nH]1)N1CCOCC1` [Example 23, (1H-benzo[d]imidazole-2-yl)(morpholino)methanone]: the “Death of retinal nerve cell (%)” value in assay [1] is given as 69.2 ± 4.2%; in assay [3] it was 45.6 ± 3.6%. This compound gave an activity at 100 µM in assay [2] of 69 ± 24.5%.
The corresponding values for `Cl.O=C(c1cc2c(-c3ccc(F)cc3)cccc2s1)N1CCNCC1` [Example 38, (4-(4-fluorophenyl)benzo[b]thiophene-2-yl)(piperazine-1-yl)methanone hydrochloride] are 72.4 ± 7.5%, 59.9 ± 0.2% and 62 ± 12%.
For `Cc1ccc2[nH]c(C(=O)N3CCOCC3)cc2c1` [Example 21, (5-methyl-1H-indole-2-yl)(morpholino)methanone] the same measures were 89.9 ± 19.4%, 64.7 ± 7.1% and 81 ± 17%.
For `O=C(c1nc2cc(Br)ccc2[nH]1)N1CCOCC1` [Example 14, (5-bromo-1H-benzo[d]imidazole-2-yl)(morpholino)methanone] the same measures were 81.1 ± 15.2%, 82.1 ± 11.2% and 62 ± 6.2%.
For `COc1ccc2cc(C(=O)N3CCOCC3)sc2c1` [Example 19, (6-methoxybenzo[b]thiophene-2-yl)(morpholino)methanone], the “Death of retinal nerve cell (%)” value in assay [1] turned out to be 71.6 ± 9.1%; in assay [3], 70.9 ± 9.7%. The activity at 100 µM in assay [2] amounted to 81 ± 26.9%.
The corresponding values for `Cc1ccc2cc(C(=O)N3CCOCC3)oc2c1` [Example 27, (6-methylbenzofuran-2-yl)(morpholino)methanone] are 86.1 ± 1.3%, 53.7 ± 9.1% and 86 ± 17%.
As to `Cn1c(C(=O)N2CCOCC2)cc2ccccc21` [Example 25, (1-methyl-1H-indole-2-yl)(morpholino)methanone], in assay [1], the “Death of retinal nerve cell (%)” value stood at 64.8 ± 11.2%. Further, in assay [2], the inhibition at 100 µM was not below 50% and the activity at 100 µM is 43%. Further, in assay [3], the “Death of retinal nerve cell (%)” value is recorded as 37.0 ± 1.2%.
Turning to `O=C(c1cc2c(S(=O)(=O)Cc3ccc(F)cc3)cccc2s1)N1CCOCC1` [Example 62, (4-(4-fluorobenzylsulfonyl)benzo[b]thiophene-2-yl)(morpholino)methanone], the activity at 100 µM in assay [2] stood at 82.5 ± 5%. Further, the “Death of retinal nerve cell (%)” value in assay [3] was determined as 59.3 ± 16.3%.
Consider `O=C(c1cc2c(Cc3ccc(F)cc3)cccc2s1)N1CCOCC1` [Example 67, (4-(4-fluorobenzyl)benzo[b]thiophene-2-yl)(morpholino)methanone], for which, in assay [2], the inhibition at 100 µM is not below 50% and the activity at 100 µM was 49.5 ± 3.5%. For the same compound, the “Death of retinal nerve cell (%)” value in assay [3] came out at 59.3 ± 14.9%.
As to `O=C(c1cc2c(-c3ccc(F)cc3)ccc(Cl)c2s1)N1CCOCC1` [Example 53, (7-chloro-4-(4-fluorophenyl)benzo[b]thiophene-2-yl)(morpholino)methanone], the activity at 100 µM in assay [2] was determined as 70 ± 4.2%. The “Death of retinal nerve cell (%)” value in assay [3] amounted to 59.9 ± 9.7%.
Take `CSc1ccc(-c2cccc3sc(C(=O)N4CCOCC4)cc23)cc1` [Example 50, (4-(4-(methylthio)phenyl)benzo[b]thiophene-2-yl)(morpholino)methanone]: in assay [2], the inhibition at 100 µM was not below 50% and the activity at 100 µM turned out to be 47.5 ± 2.1%. In assay [3], the “Death of retinal nerve cell (%)” value was 57.2 ± 8.1%.

The values above are taken from patent US10501473B2, “Fused heterocyclic ring compounds and method of treating retinal disease using same” (THE INDUSTRY & ACADEMIC COOPERATION IN CHUNGNAM NATIONAL …, priority 2014, dated 2019).
